Source: ChEMBL document CHEMBL1201862, “PubChem BioAssay data set” (2004)
Active and inactive are the calls of the source.

Assays:
Type in all cases: functional
[1] = biological target: T1, Sentrin-specific protease 8 (Homo sapiens, UniProt Q96LD8);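 further: luminescence read-out of SENP8 inhibition, dose-response confirmation following an ultra-high-throughput screen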
T1 sequence (Q96LD8 whole entry): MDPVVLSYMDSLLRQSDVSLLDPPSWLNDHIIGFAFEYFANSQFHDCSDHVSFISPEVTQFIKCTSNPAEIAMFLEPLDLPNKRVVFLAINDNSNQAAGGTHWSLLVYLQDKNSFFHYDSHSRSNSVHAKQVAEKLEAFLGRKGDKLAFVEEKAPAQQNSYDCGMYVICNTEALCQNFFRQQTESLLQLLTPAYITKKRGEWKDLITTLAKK

[2] = biological target: T2, Replicative DNA helicase DnaB (Mycobacterium tuberculosis, UniProt P9WMR3); test: DnaB intein splicing inhibitors, dose response, biochemical, cell-free fluorescence (AID 449749)
T2 sequence (P9WMR3 whole entry): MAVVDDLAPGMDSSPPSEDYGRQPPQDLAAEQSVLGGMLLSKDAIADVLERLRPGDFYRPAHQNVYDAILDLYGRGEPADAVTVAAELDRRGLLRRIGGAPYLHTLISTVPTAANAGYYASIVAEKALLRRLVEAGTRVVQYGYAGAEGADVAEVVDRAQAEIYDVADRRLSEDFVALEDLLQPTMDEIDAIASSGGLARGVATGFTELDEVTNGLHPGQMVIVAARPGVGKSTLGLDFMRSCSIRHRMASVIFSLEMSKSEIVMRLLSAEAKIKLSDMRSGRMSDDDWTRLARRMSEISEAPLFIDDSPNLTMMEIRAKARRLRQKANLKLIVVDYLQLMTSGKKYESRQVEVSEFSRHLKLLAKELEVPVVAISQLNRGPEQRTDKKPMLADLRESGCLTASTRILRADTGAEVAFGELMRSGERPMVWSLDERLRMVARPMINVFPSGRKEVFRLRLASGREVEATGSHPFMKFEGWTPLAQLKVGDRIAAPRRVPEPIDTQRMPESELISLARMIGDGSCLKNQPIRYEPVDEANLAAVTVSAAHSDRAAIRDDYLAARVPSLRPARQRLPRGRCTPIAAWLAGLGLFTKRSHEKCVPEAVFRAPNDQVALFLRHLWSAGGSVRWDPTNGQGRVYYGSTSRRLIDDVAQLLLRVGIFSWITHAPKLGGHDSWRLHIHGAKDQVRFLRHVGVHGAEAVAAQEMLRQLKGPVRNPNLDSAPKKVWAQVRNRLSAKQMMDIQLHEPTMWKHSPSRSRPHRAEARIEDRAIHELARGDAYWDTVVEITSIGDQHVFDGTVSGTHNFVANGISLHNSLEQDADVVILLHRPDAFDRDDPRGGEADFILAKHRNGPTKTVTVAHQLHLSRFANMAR

[3] = biological target: T3, Apoptotic protease-activating factor 1 (Homo sapiens, UniProt O14727)
T3 sequence (O14727 whole entry): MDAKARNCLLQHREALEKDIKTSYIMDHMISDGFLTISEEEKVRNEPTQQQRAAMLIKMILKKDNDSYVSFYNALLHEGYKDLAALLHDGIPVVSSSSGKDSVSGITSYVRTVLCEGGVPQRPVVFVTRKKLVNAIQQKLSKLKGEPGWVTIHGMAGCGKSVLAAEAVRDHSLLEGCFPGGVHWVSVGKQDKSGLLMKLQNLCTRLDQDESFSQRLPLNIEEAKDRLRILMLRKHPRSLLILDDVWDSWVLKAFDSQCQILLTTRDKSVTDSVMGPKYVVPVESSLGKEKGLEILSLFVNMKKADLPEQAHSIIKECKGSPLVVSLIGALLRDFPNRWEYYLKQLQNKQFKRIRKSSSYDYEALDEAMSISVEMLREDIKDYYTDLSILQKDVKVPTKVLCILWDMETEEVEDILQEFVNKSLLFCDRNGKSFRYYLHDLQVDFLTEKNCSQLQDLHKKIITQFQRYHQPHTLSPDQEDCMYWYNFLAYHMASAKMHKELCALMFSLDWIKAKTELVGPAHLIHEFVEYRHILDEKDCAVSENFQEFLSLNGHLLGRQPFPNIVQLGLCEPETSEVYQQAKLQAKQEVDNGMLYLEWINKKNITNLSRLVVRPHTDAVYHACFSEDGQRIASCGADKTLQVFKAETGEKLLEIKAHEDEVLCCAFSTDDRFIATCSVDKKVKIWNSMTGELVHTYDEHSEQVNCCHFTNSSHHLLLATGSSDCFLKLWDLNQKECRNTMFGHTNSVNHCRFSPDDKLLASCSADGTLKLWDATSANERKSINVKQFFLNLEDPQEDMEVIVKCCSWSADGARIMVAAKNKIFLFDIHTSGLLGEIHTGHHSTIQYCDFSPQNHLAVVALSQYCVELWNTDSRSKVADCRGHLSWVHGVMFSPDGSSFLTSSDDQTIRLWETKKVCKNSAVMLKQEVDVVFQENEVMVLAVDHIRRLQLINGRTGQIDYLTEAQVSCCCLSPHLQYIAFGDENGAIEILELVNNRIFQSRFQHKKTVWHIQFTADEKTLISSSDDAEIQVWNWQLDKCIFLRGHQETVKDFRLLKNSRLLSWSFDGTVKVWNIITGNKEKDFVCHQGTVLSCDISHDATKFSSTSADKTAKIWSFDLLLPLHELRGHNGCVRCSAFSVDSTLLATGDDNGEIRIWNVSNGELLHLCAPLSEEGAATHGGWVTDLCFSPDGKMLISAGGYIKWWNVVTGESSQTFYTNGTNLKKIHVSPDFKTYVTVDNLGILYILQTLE

[4] = biological target: Tyrosine-protein kinase JAK2 (Homo sapiens, UniProt O60674);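 further: JAK2 tested as one member of a kinase panel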
[5] = biological target: Serine/threonine-protein kinase D3 (Homo sapiens, UniProt O94806);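 further: determined within a kinase panel screen, with PRKCN as the panel member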
[6] = biological target: MAP/microtubule affinity-regulating kinase 3 (Homo sapiens, UniProt P27448);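 further: MARK3 affinity measured as one member of a kinome panel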
[7] = biological target: Insulin-like growth factor 1 receptor (Homo sapiens, UniProt P08069); test: Navigating the Kinome. Panel member name: IGF1R
[8] = biological target: cAMP-dependent protein kinase catalytic subunit alpha (Homo sapiens, UniProt P17612)

Sequence of MAP/microtubule affinity-regulating kinase 3 (P27448 whole entry): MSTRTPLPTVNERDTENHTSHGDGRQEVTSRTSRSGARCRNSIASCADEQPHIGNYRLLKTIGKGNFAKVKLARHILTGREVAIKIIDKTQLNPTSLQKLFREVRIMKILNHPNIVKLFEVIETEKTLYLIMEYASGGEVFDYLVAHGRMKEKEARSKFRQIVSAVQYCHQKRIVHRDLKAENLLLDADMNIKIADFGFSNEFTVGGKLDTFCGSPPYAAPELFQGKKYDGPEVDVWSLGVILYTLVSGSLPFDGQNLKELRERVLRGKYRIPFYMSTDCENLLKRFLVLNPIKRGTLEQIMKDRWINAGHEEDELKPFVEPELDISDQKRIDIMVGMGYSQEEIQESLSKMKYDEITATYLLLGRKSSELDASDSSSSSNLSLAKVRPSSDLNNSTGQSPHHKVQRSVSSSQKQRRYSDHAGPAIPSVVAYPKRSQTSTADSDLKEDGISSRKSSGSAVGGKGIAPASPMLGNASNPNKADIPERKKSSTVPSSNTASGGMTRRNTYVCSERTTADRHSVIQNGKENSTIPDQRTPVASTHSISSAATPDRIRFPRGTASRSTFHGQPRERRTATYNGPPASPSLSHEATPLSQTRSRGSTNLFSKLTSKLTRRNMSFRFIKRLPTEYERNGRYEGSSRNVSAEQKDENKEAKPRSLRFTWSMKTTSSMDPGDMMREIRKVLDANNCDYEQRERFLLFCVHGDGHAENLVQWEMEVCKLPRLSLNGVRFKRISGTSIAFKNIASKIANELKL
Sequence of Tyrosine-protein kinase JAK2 (O60674 whole entry): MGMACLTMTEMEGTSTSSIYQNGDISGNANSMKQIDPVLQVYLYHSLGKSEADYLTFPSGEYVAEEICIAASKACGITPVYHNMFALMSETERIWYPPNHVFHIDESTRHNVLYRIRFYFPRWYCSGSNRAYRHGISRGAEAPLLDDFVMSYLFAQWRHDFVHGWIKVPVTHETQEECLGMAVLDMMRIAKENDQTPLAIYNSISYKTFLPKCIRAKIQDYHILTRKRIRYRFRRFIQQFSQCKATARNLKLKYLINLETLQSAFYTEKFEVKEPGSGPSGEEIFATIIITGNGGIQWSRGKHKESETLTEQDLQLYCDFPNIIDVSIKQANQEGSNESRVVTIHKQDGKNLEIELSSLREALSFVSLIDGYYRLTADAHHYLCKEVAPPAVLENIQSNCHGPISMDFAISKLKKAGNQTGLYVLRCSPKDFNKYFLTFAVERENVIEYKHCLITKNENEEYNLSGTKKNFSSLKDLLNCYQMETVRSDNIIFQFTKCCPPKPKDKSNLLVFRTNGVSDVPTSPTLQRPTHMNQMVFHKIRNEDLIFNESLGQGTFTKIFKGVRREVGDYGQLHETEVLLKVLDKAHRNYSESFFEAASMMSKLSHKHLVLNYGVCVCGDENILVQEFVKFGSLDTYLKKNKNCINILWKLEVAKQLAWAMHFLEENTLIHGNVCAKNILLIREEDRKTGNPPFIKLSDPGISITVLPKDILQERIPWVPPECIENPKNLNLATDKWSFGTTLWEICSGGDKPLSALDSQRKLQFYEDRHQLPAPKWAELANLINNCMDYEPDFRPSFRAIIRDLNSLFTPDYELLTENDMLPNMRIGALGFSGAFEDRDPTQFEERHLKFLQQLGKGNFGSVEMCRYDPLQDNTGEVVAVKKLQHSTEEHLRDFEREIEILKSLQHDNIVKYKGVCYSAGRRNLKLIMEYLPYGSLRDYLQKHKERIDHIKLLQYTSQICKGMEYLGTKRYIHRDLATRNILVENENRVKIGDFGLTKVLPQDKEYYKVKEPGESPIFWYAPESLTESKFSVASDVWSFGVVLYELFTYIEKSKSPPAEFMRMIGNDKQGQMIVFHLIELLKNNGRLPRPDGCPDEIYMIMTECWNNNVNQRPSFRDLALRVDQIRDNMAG
Sequence of Serine/threonine-protein kinase D3 (O94806 whole entry): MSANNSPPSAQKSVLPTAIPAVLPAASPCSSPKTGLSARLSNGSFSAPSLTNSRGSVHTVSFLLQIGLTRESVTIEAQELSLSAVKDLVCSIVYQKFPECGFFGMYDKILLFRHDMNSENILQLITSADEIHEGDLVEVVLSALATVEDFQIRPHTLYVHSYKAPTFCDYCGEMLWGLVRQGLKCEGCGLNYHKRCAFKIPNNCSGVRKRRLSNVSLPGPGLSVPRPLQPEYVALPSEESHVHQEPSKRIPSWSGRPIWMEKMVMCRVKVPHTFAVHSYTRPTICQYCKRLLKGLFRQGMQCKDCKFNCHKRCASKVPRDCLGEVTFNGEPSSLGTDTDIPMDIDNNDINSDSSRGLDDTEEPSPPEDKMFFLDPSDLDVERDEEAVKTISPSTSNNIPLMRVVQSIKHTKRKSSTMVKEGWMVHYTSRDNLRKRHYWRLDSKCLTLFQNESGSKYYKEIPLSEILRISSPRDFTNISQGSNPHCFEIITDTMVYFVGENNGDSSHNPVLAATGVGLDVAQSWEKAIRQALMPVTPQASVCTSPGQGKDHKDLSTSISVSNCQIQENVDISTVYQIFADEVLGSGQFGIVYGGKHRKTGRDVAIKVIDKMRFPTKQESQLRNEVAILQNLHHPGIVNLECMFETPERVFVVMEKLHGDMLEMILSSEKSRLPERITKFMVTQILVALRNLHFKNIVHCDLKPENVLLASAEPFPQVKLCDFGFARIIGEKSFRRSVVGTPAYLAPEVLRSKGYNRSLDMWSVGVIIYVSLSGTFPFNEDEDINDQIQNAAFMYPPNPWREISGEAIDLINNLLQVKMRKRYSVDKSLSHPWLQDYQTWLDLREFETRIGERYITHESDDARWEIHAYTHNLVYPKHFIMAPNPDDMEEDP
Sequence of Insulin-like growth factor 1 receptor (P08069 31-736 limits assumed): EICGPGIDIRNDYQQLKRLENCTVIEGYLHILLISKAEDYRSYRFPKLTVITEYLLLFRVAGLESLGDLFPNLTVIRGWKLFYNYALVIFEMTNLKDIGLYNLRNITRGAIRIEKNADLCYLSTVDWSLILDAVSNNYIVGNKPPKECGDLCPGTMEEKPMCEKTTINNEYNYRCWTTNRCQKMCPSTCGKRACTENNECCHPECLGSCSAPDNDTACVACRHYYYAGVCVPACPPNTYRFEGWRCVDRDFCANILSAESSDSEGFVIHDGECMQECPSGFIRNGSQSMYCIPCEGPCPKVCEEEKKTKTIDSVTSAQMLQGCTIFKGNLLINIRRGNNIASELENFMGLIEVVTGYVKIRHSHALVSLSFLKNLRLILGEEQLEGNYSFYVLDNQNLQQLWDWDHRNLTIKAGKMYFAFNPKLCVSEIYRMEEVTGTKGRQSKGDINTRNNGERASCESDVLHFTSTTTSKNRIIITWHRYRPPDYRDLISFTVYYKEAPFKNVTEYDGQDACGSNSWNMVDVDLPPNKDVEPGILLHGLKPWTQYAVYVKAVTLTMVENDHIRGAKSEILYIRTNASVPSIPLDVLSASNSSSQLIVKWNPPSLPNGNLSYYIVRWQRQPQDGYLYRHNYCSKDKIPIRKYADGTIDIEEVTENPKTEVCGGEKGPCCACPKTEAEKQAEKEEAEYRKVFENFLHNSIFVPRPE
Sequence of Insulin-like growth factor 1 receptor (P08069 741-1367 limits assumed): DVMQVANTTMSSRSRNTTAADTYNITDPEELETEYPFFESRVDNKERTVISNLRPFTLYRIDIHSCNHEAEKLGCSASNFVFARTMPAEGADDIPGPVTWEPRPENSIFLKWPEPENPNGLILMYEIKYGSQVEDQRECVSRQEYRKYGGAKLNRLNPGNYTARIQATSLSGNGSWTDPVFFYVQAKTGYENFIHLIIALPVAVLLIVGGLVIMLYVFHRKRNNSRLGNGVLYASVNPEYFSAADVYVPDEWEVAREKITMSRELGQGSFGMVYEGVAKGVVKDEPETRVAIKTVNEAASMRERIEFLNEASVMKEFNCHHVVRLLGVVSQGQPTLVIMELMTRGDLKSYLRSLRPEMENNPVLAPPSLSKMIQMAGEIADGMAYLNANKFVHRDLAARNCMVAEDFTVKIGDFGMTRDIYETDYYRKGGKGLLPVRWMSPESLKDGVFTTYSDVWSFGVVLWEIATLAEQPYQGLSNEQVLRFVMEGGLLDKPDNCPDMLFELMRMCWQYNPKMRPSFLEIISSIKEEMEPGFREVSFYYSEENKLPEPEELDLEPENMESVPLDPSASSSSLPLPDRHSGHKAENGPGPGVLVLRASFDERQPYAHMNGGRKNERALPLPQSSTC

Cc1cc(C)c[n+](C2=C([N-]S(=O)(=O)c3cccs3)C(=O)c3ccccc3C2=O)c1
IC50 [1]: 33.4 µM (active)

CCCCCCCCCCC[N+](C)(C)CC/C=C1/c2ccccc2Sc2ccc(Cl)cc21
AC50 [2]: > 380 µM (inactive) | IC50 [3]: 11.6 µM (active)

CCn1c(-c2nonc2N)nc2cncc(C(=O)N3CCC(N)C3)c21 (stereo unspecified)
Ki [4]: > 2.51 µM (inactive) | Ki [5]: 631 nM (active) | Ki [6]: 2 µM (active) | Ki [7]: > 2.51 µM (inactive) | Ki [8]: 3.16 nM (active)

Cc1[nH]nc2ccc(-c3cncc(OCC(N)Cc4c[nH]c5ccccc45)c3)cc12 (stereo unspecified)
Ki [4]: > 1.58 µM (inactive) | Ki [5]: 5.01 nM (active) | Ki [6]: 0.398 µM (active) | Ki [7]: > 2 µM (inactive) | Ki [8]: 5.01 nM (active)

COC(=O)c1ccccc1NC1=C/C(=N\S(=O)(=O)c2cccs2)c2ccccc2C1=O
IC50 [1]: 41.2 µM (active) | AC50 [2]: > 380 µM (inconclusive) | IC50 [3]: 1.82 µM (active)
